US10517889B2, “Modulators of SMAD7 expression” (Ionis Pharmaceuticals, Inc., priority 2017, dated 2019)
Strand notation (5' to 3'): a small letter for the sugar, then the base; units joined by * are phosphorothioate-linked, units joined directly phosphodiester-linked; [ ] holds rarer units or linkages, { } end groups; capitals alone tell only the bases. k = constrained ethyl (cEt); [5mC] = 5-methylcytosine; d = 2'-deoxy (DNA)

system: human SMAD7 mRNA; test: Antisense inhibition of human SMAD7 mRNA expression in Hep3B cells by 3-10-3 cEt gapmers, 10,000 nM, electroporation (Example 2); assay type: cell-based; settings: Hep3B cells, 10,000 nM antisense oligonucleotide, electroporation, approximately 24 hours, RT-PCR primer probe set RTS5062, relative to untreated control cells
How it was run: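 SMAD7 mRNA was measured by real-time PCR (RTS5062) with RiboGreen total-RNA normalization, about 24 h after 10,000 nM gapmer was delivered by electroporation into Hep3B cells at 20,000 per well. Gapmers were 16-mer 3-10-3 cEt, fully phosphorothioate; values are % inhibition versus untreated controls.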

Substance | % Inhibition
798842 (k[5mC]*kA*kG*d[5mC]*dT*dG*dA*d[5mC]*dT*d[5mC]*dT*dT*dG*kT*kT*kG; antisense) [compound 798842] | 0%
798913 (k[5mC]*k[5mC]*k[5mC]*dT*d[5mC]*d[5mC]*dG*d[5mC]*dA*d[5mC]*dG*d[5mC]*dG*kG*k[5mC]*kT; antisense) [compound 798913] | 21%
800074 (antisense kG*kG*kG*d[5mC]*dA*dT*dT*d[5mC]*dT*dG*dA*d[5mC]*dT*k[5mC]*k[5mC]*kT) [compound 800074] | 33%

same assay, conditions: Hep3B cells, electroporation with 10,000 nM antisense oligonucleotide, approximately 24 hours, RTS5062, percent inhibition of SMAD7 mRNA relative to untreated control cells

Substance | % Inhibition
799274 (antisense kT*kT*kA*dA*dT*d[5mC]*dA*dT*dT*dA*d[5mC]*dT*d[5mC]*kG*kA*kG) [compound 799274] | 24%
799644 (kT*kT*k[5mC]*d[5mC]*dA*dA*d[5mC]*dA*d[5mC]*dA*dT*dG*d[5mC]*kT*k[5mC]*kT; antisense) [compound 799644] | 31%
799691 (antisense kT*k[5mC]*k[5mC]*d[5mC]*dA*dT*dA*dG*dG*dT*dG*dT*dA*k[5mC]*kA*kA) [compound 799691] | 49%

same assay, conditions: Hep3B cells, electroporation with 10,000 nM antisense oligonucleotide, approximately 24 hours, SMAD7 mRNA by RT-PCR (RTS5062), relative to untreated control cells

Substance | % Inhibition
830084 (kG*kA*kT*dA*d[5mC]*dA*d[5mC]*dT*dT*dA*dA*dT*d[5mC]*kA*kA*kA; antisense) [compound 830084] | 26%
790510 (k[5mC]*k[5mC]*k[5mC]*d[5mC]*dT*dG*dA*dG*dG*dT*dA*dG*dA*kT*k[5mC]*kA; antisense) [compound 790510] | 33%
798813 (k[5mC]*k[5mC]*kG*dA*dT*d[5mC]*d[5mC]*d[5mC]*d[5mC]*dA*dG*dG*d[5mC]*kT*k[5mC]*k[5mC]; antisense) [compound 798813] | 23%
798885 (kG*k[5mC]*kA*d[5mC]*dG*dG*dT*dA*dA*dA*dG*d[5mC]*d[5mC]*k[5mC]*kG*kT; antisense) [compound 798885] | 43%
830156 (antisense k[5mC]*kT*kG*dT*dG*d[5mC]*d[5mC]*dT*d[5mC]*dA*dG*d[5mC]*dA*kG*kT*kT) [compound 830156] | 48%
799332 (kG*kG*kG*dA*dA*dT*dG*d[5mC]*d[5mC]*d[5mC]*dT*dT*dT*kG*kA*kG; antisense) [compound 799332] | 45%
798741 (antisense k[5mC]*kT*kT*d[5mC]*dA*dG*dT*dT*dT*d[5mC]*dT*dT*dG*kA*kG*k[5mC]) [compound 798741] | 17%
799409 (antisense k[5mC]*kT*kA*d[5mC]*d[5mC]*dT*dA*dA*dT*dG*dT*d[5mC]*dA*kA*k[5mC]*kA) [compound 799409] | 34%
799241 (kA*kT*kT*d[5mC]*dT*d[5mC]*d[5mC]*dG*dT*dA*dT*dT*dT*kA*k[5mC]*kT; antisense) [compound 799241] | 16%
799494 (antisense kA*kG*kG*dA*dT*dA*d[5mC]*dA*d[5mC]*dT*dT*dA*dA*kT*k[5mC]*kA) [compound 799494] | 45%
799435 (antisense kT*k[5mC]*k[5mC]*dT*d[5mC]*dA*dA*dA*d[5mC]*d[5mC]*dT*dT*dT*k[5mC]*kA*kG) [compound 799435] | 60%
799261 (antisense kT*kT*kT*dG*d[5mC]*d[5mC]*d[5mC]*d[5mC]*dA*dA*dA*dA*d[5mC]*kT*k[5mC]*k[5mC]) [compound 799261] | 52%
799492 (antisense kA*kA*kA*d[5mC]*dA*dA*dT*dA*dG*dA*dG*dG*d[5mC]*kA*kG*kG) [compound 799492] | 58%
798901 (k[5mC]*k[5mC]*kT*d[5mC]*dT*dA*dG*d[5mC]*d[5mC]*dA*dG*d[5mC]*dA*k[5mC]*kG*kG; antisense) [compound 798901] | 30%

same assay, conditions: Hep3B cells, electroporation with 10,000 nM antisense oligonucleotide, approximately 24 hours, primer probe set RTS5062, relative to untreated control cells

Substance | % inhibition of SMAD7 mRNA expression | % Inhibition
798729 (antisense kG*kA*k[5mC]*d[5mC]*dT*dT*dT*dG*dG*d[5mC]*dA*d[5mC]*d[5mC]*kT*k[5mC]*kG) [compound 798729] | 51% | –
799057 (antisense kG*kG*k[5mC]*dT*d[5mC]*dG*d[5mC]*dT*dG*d[5mC]*dT*d[5mC]*dA*kG*kA*kA) [compound 799057] | – | 0%
798731 (antisense kG*kG*kT*dG*dG*dT*dG*dA*d[5mC]*d[5mC]*dT*dT*dT*kG*kG*k[5mC]) [compound 798731] | 43% | –
799051 (antisense kT*kG*kG*dA*d[5mC]*dA*dG*dG*d[5mC]*d[5mC]*d[5mC]*dG*dT*kG*kT*k[5mC]) [compound 799051] | 32% | –
799162 (antisense kT*kA*kT*d[5mC]*dA*dT*dA*d[5mC]*dG*dA*dG*dT*dG*kT*kA*kT) [compound 799162] | – | 36%
799359 (kT*kG*kT*dT*dA*dA*dA*dG*d[5mC]*dT*dG*dA*dG*k[5mC]*k[5mC]*k[5mC]; antisense) [compound 799359] | 22% | –
798936 (antisense kG*k[5mC]*kA*dT*dG*dA*dA*dA*dA*dG*d[5mC]*dA*dA*kG*k[5mC]*kA) [compound 798936] | – | 14%
799224 (k[5mC]*k[5mC]*kA*dA*dT*d[5mC]*dT*dT*dG*dT*dG*dT*dT*kT*kA*kT; antisense) [compound 799224] | – | 3%
798774 (kT*kT*kG*dA*d[5mC]*dT*dT*d[5mC]*d[5mC]*dG*dA*dG*dG*kA*kA*kT; antisense) [compound 798774] | 12% | –
798705 (antisense kG*kG*k[5mC]*dT*dG*dT*d[5mC]*d[5mC]*dG*dT*d[5mC]*dG*d[5mC]*k[5mC]*k[5mC]*k[5mC]) [compound 798705] | 41% | –
799129 (antisense k[5mC]*k[5mC]*kT*d[5mC]*d[5mC]*d[5mC]*dA*dG*dG*dG*dA*d[5mC]*dA*kT*k[5mC]*k[5mC]) [compound 799129] | 37% | –
799342 (k[5mC]*kT*kT*dA*dT*d[5mC]*dT*dG*dT*dG*d[5mC]*dG*dG*kA*kA*kG; antisense) [compound 799342] | 44% | –
799425 (antisense kA*kT*kT*dA*dT*dA*dG*d[5mC]*dA*dA*dA*dA*dT*kG*kG*kA) [compound 799425] | 23% | –
799445 (antisense k[5mC]*k[5mC]*kT*dA*dA*dT*d[5mC]*dT*d[5mC]*dT*dT*dT*d[5mC]*kA*kT*k[5mC]) [compound 799445] | 28% | –
799130 (antisense kG*kT*k[5mC]*d[5mC]*d[5mC]*dT*d[5mC]*d[5mC]*d[5mC]*dA*dG*dG*dG*kA*k[5mC]*kA) [compound 799130] | 1% | –
799424 (antisense k[5mC]*kT*k[5mC]*d[5mC]*dA*dA*dA*dG*dG*d[5mC]*dT*dG*d[5mC]*kA*kG*kG) [compound 799424] | 34% | –

same assay, conditions: Hep3B cells, electroporation, 10,000 nM antisense oligonucleotide, approximately 24 hours, RTS5062, relative to untreated control cells

Substance | % inhibition of SMAD7 mRNA expression
799780 (k[5mC]*k[5mC]*kA*dT*dA*dA*dA*d[5mC]*dA*dA*dA*d[5mC]*d[5mC]*kA*k[5mC]*kA; antisense) [compound 799780] | 28%
799795 (k[5mC]*k[5mC]*kA*dG*dA*dT*dG*dT*dT*dT*d[5mC]*d[5mC]*d[5mC]*k[5mC]*kA*k[5mC]; antisense) [compound 799795] | 66%
799733 (antisense kG*kT*kT*dT*dA*dG*dG*dT*dA*dG*dA*dG*dT*kG*kG*k[5mC]) [compound 799733] | 27%
799602 (k[5mC]*k[5mC]*kA*dT*dT*dA*dT*dG*dA*dA*dT*dA*d[5mC]*kA*k[5mC]*kT; antisense) [compound 799602] | 51%
799301 (antisense k[5mC]*k[5mC]*kA*d[5mC]*dA*d[5mC]*dA*dT*dT*d[5mC]*d[5mC]*dA*dA*kA*kA*kG) [compound 799301] | 37%
799638 (kA*kG*kT*d[5mC]*dA*dG*dG*d[5mC]*dA*d[5mC]*dA*dG*dA*k[5mC]*kT*kG; antisense) [compound 799638] | 53%

same assay, conditions: SMAD7 mRNA, Hep3B cells, 10,000 nM antisense oligonucleotide, electroporation, approximately 24 hours, primer probe set RTS5062, relative to untreated control cells

Substance | % Inhibition
829780 (antisense k[5mC]*kG*kG*d[5mC]*d[5mC]*dA*d[5mC]*d[5mC]*dT*dG*dA*dA*d[5mC]*kA*k[5mC]*kT) [compound 829780] | 37%
829775 (antisense k[5mC]*kG*kA*dG*dT*dA*dG*dG*dA*d[5mC]*dG*dA*dG*kG*kG*k[5mC]) [compound 829775] | 59%

same assay, conditions: SMAD7 mRNA, Hep3B cells, electroporation with 10,000 nM antisense oligonucleotide, approximately 24 hours, primer probe set RTS5062, relative to untreated control cells

Substance | % Inhibition
829904 (antisense kG*k[5mC]*kT*dG*dT*dT*dG*dA*dA*dG*dA*dT*dG*kA*k[5mC]*k[5mC]) [compound 829904] | 21%
829822 (kT*kG*kT*dT*dT*d[5mC]*dA*dG*d[5mC]*dG*dG*dA*dG*kG*kA*kA; antisense) [compound 829822] | 43%
829934 (kT*kA*kG*dG*dT*dG*dA*dT*dA*dA*d[5mC]*dA*d[5mC]*k[5mC]*k[5mC]*kA; antisense) [compound 829934] | 26%
829870 (antisense k[5mC]*k[5mC]*kA*dG*dT*dG*dT*dG*dG*d[5mC]*dG*dG*dA*k[5mC]*kT*kT) [compound 829870] | 19%
829814 (kG*kT*k[5mC]*dT*dG*d[5mC]*dA*dG*dT*dT*dG*dG*dT*kT*kT*kG; antisense) [compound 829814] | 94%
